Source: patent US20040023994A1 (priority 2002, published 2004)
Like-named read-outs stand apart in the source and are kept apart here.

Experiments:
[1] = tested on: M14
[2] = tested on: PC-3; format: cell-based; settings: PC-3, Prostate, 48 h
[3] = tested on: UACC-257
[4] = tested on: CCRF-CEM; settings: 48 h
[5] = tested on: LOX IMVI; settings: 48 h
[6] = tested on: HCT-116
[7] = tested on: HCT-15
[8] = tested on: NCI/ADR-RES; settings: 48 h
[9] = tested on: SK-MEL-28
[10] = tested on: NCI-H23; format: cell-based; settings: NCI-H23, Non-Small Cell Lung, 48 h
[11] = tested on: KM12
[12] = tested on: OVCAR-5
[13] = tested on: SNB-75
[14] = tested on: A549/ATCC
[15] = tested on: KM12; settings: KM12, Colon, NCI database, cited from earlier work
[16] = tested on: MDA-N; settings: Breast, NCI database, cited from earlier work
[17] = tested on: OVCAR-3; settings: OVCAR-3, Ovarian, NCI database, cited from earlier work
[18] = tested on: HL-60(TB); settings: cited from earlier work
[19] = tested on: TK-10; settings: TK-10, Renal, NCI database, cited from earlier work
[20] = tested on: SNB-19; settings: SNB-19, CNS, NCI database, cited from earlier work
[21] = tested on: LOX IMVI; settings: Melanoma, NCI database, cited from earlier work
[22] = tested on: UACC-257; settings: UACC-257, Melanoma, NCI database, cited from earlier work
[23] = tested on: A549/ATCC; settings: Non-Small Cell Lung, NCI database, cited from earlier work
[24] = tested on: UACC-62; settings: UACC-62, Melanoma, NCI database, cited from earlier work
[25] = tested on: OVCAR-5; settings: OVCAR-5, Ovarian, NCI database, cited from earlier work
[26] = tested on: SF-295; settings: SF-295, CNS, NCI database, cited from earlier work
[27] = tested on: COLO 205; settings: COLO 205, Colon, NCI database, cited from earlier work
[28] = Homo sapiens, read-out: LC50 (the source's name)
[29] = read-out: LC50 (the source's name)

Structure (SMILES): CC(=O)C=CSc1ncnc2nc[nH]c12 [cis-AVTP, 6-(2-acetylvinylthio) purine]
- GI50 ([1]; Homo sapiens, M14, 48 h): 0.07 µM
- CC50 ([1]; Homo sapiens, M14, 48 h, read-out: LC50): 7.75 µM
- TGI ([1]; M14, Melanoma, 48 h): 1.89 µM
- GI50 ([2]; Homo sapiens): 2.05 µM
- CC50 [2, 28]: 85.1 µM
- TGI [2]: 10.2 µM
- GI50 ([3]; Homo sapiens, UACC-257, 48 h): 2.4 µM
- CC50 ([3]; Homo sapiens, UACC-257, 48 h, read-out: LC50): > 100 µM
- TGI ([3]; UACC-257, Melanoma, 48 h): 27.4 µM
- GI50 ([4]; Homo sapiens): 0.2 µM
- CC50 ([4]; Homo sapiens, read-out: LC50): > 100 µM
- TGI ([4]; Leukemia): 2.17 µM
- GI50 ([5]; Homo sapiens): 0.03 µM
- CC50 ([5]; Homo sapiens, read-out: LC50): > 100 µM
- TGI ([5]; Melanoma): 2.23 µM
- TGI ([6]; HCT-116, Colon, 48 h): 1.89 µM
- GI50 ([6]; Homo sapiens, HCT-116, 48 h): 0.51 µM
- CC50 ([6]; Homo sapiens, HCT-116, 48 h, read-out: LC50): 4.73 µM
- TGI ([7]; HCT-15, Colon, 48 h): 5.98 µM
- GI50 ([7]; Homo sapiens, HCT-15, 48 h): 1.88 µM
- CC50 ([7]; Homo sapiens, HCT-15, 48 h, read-out: LC50): 41.3 µM
- TGI ([8]; Breast): 2.79 µM
- GI50 ([8]; Homo sapiens): 0.51 µM
- CC50 ([8]; Homo sapiens, read-out: LC50): > 100 µM
- GI50 ([9]; Homo sapiens, SK-MEL-28, 48 h): 1.84 µM
- CC50 ([9]; Homo sapiens, SK-MEL-28, 48 h, read-out: LC50): 9.58 µM
- TGI ([9]; SK-MEL-28, Melanoma, 48 h): 4.19 µM
- GI50 ([10]; Homo sapiens): 1.48 µM
- CC50 [10, 28]: 27.8 µM
- TGI [10]: 4.58 µM
- GI50 ([11]; Homo sapiens, KM12, 48 h): 3.35 µM
- CC50 ([11]; Homo sapiens, KM12, 48 h, read-out: LC50): > 100 µM
- TGI ([11]; KM12, Colon, 48 h): 27.2 µM
- GI50 ([12]; Homo sapiens, OVCAR-5, 48 h): 1.31 µM
- CC50 ([12]; Homo sapiens, OVCAR-5, 48 h, read-out: LC50): 6.57 µM
- TGI ([12]; OVCAR-5, Ovarian, 48 h): 2.94 µM
- GI50 ([13]; Homo sapiens, SNB-75, 48 h): 4.19 µM
- CC50 ([13]; Homo sapiens, SNB-75, 48 h, read-out: LC50): 49.1 µM
- TGI ([13]; SNB-75, CNS, 48 h): 18.6 µM
- TGI ([14]; A549/ATCC, Non-Small Cell Lung, 48 h): 24.3 µM
- GI50 ([14]; Homo sapiens, A549, 48 h): 6.94 µM
- CC50 ([14]; Homo sapiens, A549, 48 h, read-out: LC50): 69.5 µM

Structure (SMILES): Nc1nc2nc[nH]c2c(=S)[nH]1 [6-TG, 6-thioguanine]
- GI50 [15]: 1.72 µM
- TGI [15]: 31.5 µM
- CC50 [15, 29]: > 100 µM
- CC50 [16, 29]: > 100 µM
- GI50 [16]: 1.01 µM
- TGI [16]: 26.4 µM
- GI50 [17]: 0.71 µM
- TGI [17]: 6.68 µM
- CC50 [17, 29]: > 100 µM
- GI50 ([18]; Leukemia, NCI database): 1.07 µM
- TGI ([18]; Leukemia, NCI database): 17.8 µM
- CC50 ([18]; read-out: LC50, Leukemia, NCI database): > 100 µM
- GI50 [19]: 1.04 µM
- TGI [19]: 78.3 µM
- CC50 [19, 29]: > 100 µM
- GI50 [20]: 78.5 µM
- TGI [20]: >100 µM
- CC50 [20, 29]: > 100 µM
- CC50 [21, 29]: > 100 µM
- GI50 [21]: 0.21 µM
- TGI [21]: 8.99 µM
- GI50 [22]: 1.98 µM
- TGI [22]: 95.7 µM
- CC50 [22, 29]: > 100 µM
- CC50 [23, 29]: > 100 µM
- GI50 [23]: 3.48 µM
- TGI [23]: >100 µM
- GI50 [24]: 0.5 µM
- TGI [24]: 4.53 µM
- CC50 [24, 29]: 74.1 µM
- GI50 [25]: 0.65 µM
- TGI [25]: 47.5 µM
- CC50 [25, 29]: > 100 µM
- GI50 [26]: 1.02 µM
- TGI [26]: >100 µM
- CC50 [26, 29]: > 100 µM
- GI50 [27]: 1.67 µM
- TGI [27]: 8.75 µM
- CC50 [27, 29]: 34.5 µM
